Laboratory results taken from patent US20260234141A1, “COMPOUNDS AND COMPOSITIONS USEFUL AS DEGRADERS OF MK2 KINASE” (Celgene Corporation, priority 2023, published 2026).

How the values were obtained:
[1] = target: T1, p38a activated, mitogen-activated protein kinase-activated protein kinase 2 (MAPKAP-K2 or MK2) enzyme (Homo sapiens, UniProt P49137); experiment: MK2 OMNIA biochemical assay (AssayQuant continuous-read kinase assay); details: [MK-2]=0.05 nM, [ATP]=100 μM, [AQT0425]=10 μM
T1 construct: purchased Invitrogen PV3317
Procedure: The protocol below describes a continuous-read kinase assay optimized to measure potency of compounds against p38a activated, mitogen-activated protein kinase-activated protein kinase 2 (MAPKAP-K2 or MK2) enzyme.
A 1.25× stock solution of MK2 (PV3317, from Invitrogen) and a 5× stock solution of ATP and Sox conjugated peptide substrate, AQT0425 (CSKS-AQT0425B, from AssayQuant Technologies), were prepared in 1× kinase reaction buffer consisting of 50 mM HEPES, pH 7.5, 0.01% Brij-35, 0.55 mM EGTA, 10 mM MgCl2 and 1 mM DTT.
10 μL of the ATP and substrate solution mix was added to a Corning (3574) 384-well, white, non-binding surface microtiter plate containing […] of serially diluted test compounds prepared in DMSO. The reactions were started with the addition of 40 μL of the enzyme solution and monitored every 71 seconds for 240 min at λex 360/λem 485 in a Synergy H4 plate reader from BioTek at room temperature.
The initial linear portions of the net progress curves were fit according to a linear equation to yield the slope and percentage of inhibition (% inhibition) at each compound concentration. The net progress curves obtained during the entirety of reactions were also fit according to an ascending single-exponential equation (Eq. 1) to yield Vobs values at each compound concentration. Plots of % Inhibition versus degrader concentrations were fit according to a dose-response equation (Eq. 2) to generate IC50 and Hill slope values while plots of Vobs versus degrader concentration were fit according to Equation 3 (Eq. 3) to generate apparent Kinact values using the GraphPad PRISM software.
where F is the fluorescence intensity from the plate reader, V0 is a constant reflecting the relationship between the instrument readout and product concentration, t is time, e is Euler's number, and Vobs is the observed inactivation rate constant.
where % Inhibition is percentage of inhibition, IC50 is half maximal inhibitory concentration, [I] is the degraders concentration, and n is the Hill slope.
where kobs is the observed inactivation rate constant, Kinact is the apparent inactivation rate constant, KI is the apparent inhibition constant, and [I] is the degrader concentration.

[2] = target: T2, MK2 (Homo sapiens, UniProt P49137); experiment: MK2 degradation assay in MK2 overexpressed HiBiT-tagged cell line; assay type: cell-based; details: cells stably expressing HiBiT-tagged MK2 (overexpressed), overnight incubation, read-out: HiBiT MK2 OE EC50
T2 construct: expressed in transfected cells
Procedure: A compound was dispensed into a white 384-well tissue-culture treated plate using an acoustic liquid handler. Dilutions were based on a 25 μL assay volume in duplicate 10 point 3-fold serial dilutions starting with a 10 μM dose. Negative control wells containing only 0.2% DMSO were also included to calculate 100% signal. All wells were backfilled to a final DMSO concentration of 0.2% to ensure DMSO uniformity across wells. Cells stably expressing HiBiT-tagged protein of interest were then washed, trypsinized, and counted.
These cells were then resuspended in fresh medium to give the proper concentration. This was done so that when cells were plated at a 25 μL seeding volume the assay would be conducted within the linear range from optimization of cell-based HiBiT assay. Following the above procedure, 25 μL of cells expressing HiBiT-tagged protein of interest were dispensed per well. Cells were then seeded into the 384-well plate that was pre-spotted with compounds. The resulting cells were incubated overnight at 37° C./5% CO2.
The 384-well plates were then removed from the incubator and left at room temperature for 30 min. The Nano-Glo HiBiT Lytic Detection Reagent was prepared according to manufacturer's instructions. 25 μL of Nano-Glo HiBiT Lytic Detection Reagent were added per well of a 384-well plate. The resulting plates were incubates for 30 min at room temperature. Luminescence signal was then read using a plate reader.
All luminescence values were normalized to the DMSO control wells. The average value of the DMSO control wells was set to equal 100% of the relative HiBiT-tagged target protein levels.
The luminescence values were plotted using a graphing software. Compound concentration was plotted on the x-axis and the corresponding relative protein of interest levels on the y-axis. Graphing software was used to determine the EC50 value (the half-maximum effective concentration) of a compound for the degradation of the HiBiT-tagged substrate. The software used a four-parameter logistic model (sigmoidal dose-response model) (FIT=(A+{(B−A)/1+[(C/x)^D]})) where C was the inflection point (EC50), D was the […], and A and B were the low and high limits of the fit, respectively) to calculate the EC50. The Ymin was calculated by determining the lowest percentage of target protein remaining following compound treatment.

T1 sequence (P49137 whole entry): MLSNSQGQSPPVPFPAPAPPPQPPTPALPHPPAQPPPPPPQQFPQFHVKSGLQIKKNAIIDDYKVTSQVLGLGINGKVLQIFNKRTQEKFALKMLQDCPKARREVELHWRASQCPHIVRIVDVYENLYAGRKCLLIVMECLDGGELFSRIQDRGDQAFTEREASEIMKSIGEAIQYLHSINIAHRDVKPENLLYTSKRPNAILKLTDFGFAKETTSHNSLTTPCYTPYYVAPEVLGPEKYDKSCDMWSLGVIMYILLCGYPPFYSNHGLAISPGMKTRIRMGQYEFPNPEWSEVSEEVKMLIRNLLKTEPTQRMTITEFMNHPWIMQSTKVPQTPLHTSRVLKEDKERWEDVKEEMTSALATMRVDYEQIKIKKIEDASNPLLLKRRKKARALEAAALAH
T2 sequence (P49137 whole entry): as above

IC50 [1] [nM]	DC50 [2] [nM]	Compound
501 to 1000	< 10	Cn1nc(C2CCC(=O)NC2=O)c2cccc(N3CCN(CCN4CCN(c5ccc(-c6cc(-c7cc8c([nH]7)CCNC8=O)ccn6)c(F)c5)CC4)CC3)c21 (stereo not drawn) [Example 1.13, 3-(7-(4-(2-(4-(3-Fluoro-4-(4-(4-oxo-4,5,6,7-tetrahydro-1H-pyrrolo[3,2-c]pyridin-2-yl)pyridin-2-yl)phenyl)piperazin-1-yl)ethyl)piperazin-1-yl)-1-methyl-1H-indazol-3-yl)piperidine-2,6-dione]
501 to 1000	10 to 100	O=C1CCC(c2ccc(N3CCN(CC[C@H]4CC[C@H](NC(=O)c5ccc(-c6cc(-c7cc8c([nH]7)CCNC8=O)ccn6)c(F)c5)CC4)CC3)cc2)C(=O)N1 (stereo partly drawn) [Example 1.10, N-(trans-4-(2-(4-(4-(2,6-Dioxopiperidin-3-yl)phenyl)piperazin-1-yl)ethyl)cyclohexyl)-3-fluoro-4-(4-(4-oxo-4,5,6,7-tetrahydro-1H-pyrrolo[3,2-c]pyridin-2-yl)pyridin-2-yl)benzamide]
151 to 500	101 to 500	O=C1CCC(c2cccc(N3CCN(CC[C@H]4CC[C@H](NC(=O)c5ccc(-c6cc(-c7cc8c([nH]7)CCNC8=O)ccn6)c(F)c5)CC4)CC3)c2)C(=O)N1 (stereo partly drawn) [Example 1.9, N-(trans-4-(2-(4-(3-(2,6-Dioxopiperidin-3-yl)phenyl)piperazin-1-yl)ethyl)cyclohexyl)-3-fluoro-4-(4-(4-oxo-4,5,6,7-tetrahydro-1H-pyrrolo[3,2-c]pyridin-2-yl)pyridin-2-yl)benzamide]
< 150	< 10	Cn1nc(C2CCC(=O)NC2=O)c2ccc(N3CCN(C[C@H]4CC[C@H](NC(=O)c5ccc(-c6cc(-c7cc8c([nH]7)CCNC8=O)ccn6)c(F)c5)CC4)CC3)cc21 (stereo partly drawn) [Example 1.5, N-[trans-4-[[4-[3-(2,6-dioxo-3-piperidyl)-1-methyl-indazol-6-yl]piperazin-1-yl]methyl]cyclohexyl]-3-fluoro-4-[4-(4-oxo-1,5,6,7-tetrahydropyrrolo[3,2-c]pyridin-2-yl)-2-pyridyl]benzamide]
151 to 500	> 500	O=C1CCC(c2ccc(N3CCN(CCN4CCN(c5cccc(-c6cc(-c7cc8c([nH]7)CCNC8=O)ccn6)c5)CC4)CC3)cc2)C(=O)N1 (stereo not drawn) [Example 1.12, 3-(4-(4-(2-(4-(3-(4-(4-Oxo-4,5,6,7-tetrahydro-1H-pyrrolo[3,2-c]pyridin-2-yl)pyridin-2-yl)phenyl)piperazin-1-yl)ethyl)piperazin-1-yl)phenyl)piperidine-2,6-dione]
< 150	101 to 500	Cn1nc(C2CCC(=O)NC2=O)c2ccc(N3CCN(CCN4CCN(c5cccc(-c6cc(-c7cc8c([nH]7)CCNC8=O)ccn6)c5)CC4)CC3)cc21 (stereo not drawn) [Example 1.11, 3-(1-Methyl-6-(4-(2-(4-(3-(4-(4-oxo-4,5,6,7-tetrahydro-1H-pyrrolo[3,2-c]pyridin-2-yl)pyridin-2-yl)phenyl)piperazin-1-yl)ethyl)piperazin-1-yl)-1H-indazol-3-yl)piperidine-2,6-dione]
501 to 1000	< 10	Cn1nc(C2CCC(=O)NC2=O)c2ccc(N3CCN(CC[C@H]4CC[C@H](NC(=O)c5ccc(-c6cc(-c7cc8c([nH]7)CCNC8=O)ccn6)c(F)c5)CC4)CC3)cc21 (stereo partly drawn) [Example 1.8, N-(trans-4-(2-(4-(3-(2,6-Dioxopiperidin-3-yl)-1-methyl-1H-indazol-6-yl)piperazin-1-yl)ethyl)cyclohexyl)-3-fluoro-4-(4-(4-oxo-4,5,6,7-tetrahydro-1H-pyrrolo[3,2-c]pyridin-2-yl)pyridin-2-yl)benzamide]
151 to 500	10 to 100	O=C1CCC(c2cccc(N3CCN(C[C@H]4CC[C@H](NC(=O)c5ccc(-c6cc(-c7cc8c([nH]7)CCNC8=O)ccn6)c(F)c5)CC4)CC3)c2)C(=O)N1 (stereo partly drawn) [Example 1.7, N-(trans-4-((4-(3-(2,6-Dioxopiperidin-3-yl)phenyl)piperazin-1-yl)methyl)cyclohexyl)-3-fluoro-4-(4-(4-oxo-4,5,6,7-tetrahydro-1H-pyrrolo[3,2-c]pyridin-2-yl)pyridin-2-yl)benzamide]
151 to 500	10 to 100	O=C1CCC(c2ccc(N3CCN(C[C@H]4CC[C@H](NC(=O)c5ccc(-c6cc(-c7cc8c([nH]7)CCNC8=O)ccn6)c(F)c5)CC4)CC3)cc2)C(=O)N1 (stereo partly drawn) [Example 1.6, N-(trans-4-((4-(4-(2,6-Dioxopiperidin-3-yl)phenyl)piperazin-1-yl)methyl)cyclohexyl)-3-fluoro-4-(4-(4-oxo-4,5,6,7-tetrahydro-1H-pyrrolo[3,2-c]pyridin-2-yl)pyridin-2-yl)benzamide]
